Tests used:
[1] = tested on: extracellular levels of ACh in hippocampus; assay: ACh release in hippocampus, microdialysis in freely moving rats; type: in vivo; details: for ACh content in perfusate increased: hippocampus
Description: ACh content in perfusate obtained from hippocampus (Bregma, A: −5.8 mm, L: 5.0 mm, H: 4.0 mm) of brain were continuously detected by means of HPLC and ECD through the microdialysis system using freely moving rats (See Messamore and Kawashima, supra). After an equilibration period, five fractions were allowed to obtain basal ACh content. Test substances were injected i.p., and thereafter, microdialytic analysis was conducted for 3 hr.

[2] = target: T1, peripheral 5-HT3 receptor (Rattus norvegicus, UniProt P35563); assay: 5-HT-evoked von Bezold-Jarish Effect (B.J.E.) in anesthetized rats; type: in vivo; details: Cm.A 3 to 10 mg/kg
T1 construct: from tissue; host or cells: whole anesthetized rat (peripheral receptors)
T1 sequence (P35563 24-483): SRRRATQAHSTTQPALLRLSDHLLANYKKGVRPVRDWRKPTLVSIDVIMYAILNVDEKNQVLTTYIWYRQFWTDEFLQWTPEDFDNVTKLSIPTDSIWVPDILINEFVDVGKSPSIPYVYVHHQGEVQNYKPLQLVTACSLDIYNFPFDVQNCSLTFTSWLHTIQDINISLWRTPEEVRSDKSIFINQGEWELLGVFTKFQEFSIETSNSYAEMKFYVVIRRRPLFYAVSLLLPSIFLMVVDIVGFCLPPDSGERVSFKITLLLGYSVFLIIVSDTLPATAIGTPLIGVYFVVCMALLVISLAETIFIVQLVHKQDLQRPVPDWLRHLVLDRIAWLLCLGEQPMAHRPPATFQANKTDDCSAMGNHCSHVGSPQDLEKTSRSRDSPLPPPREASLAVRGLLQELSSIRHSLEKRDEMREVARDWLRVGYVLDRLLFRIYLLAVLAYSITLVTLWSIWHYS
Description: A bolus i.v. injection of serotonin (5-HT) (20 μg/kg) caused reflex bradycardia transiently (von Bezold—Jarish Effect: B.J.E.) via activation of peripheral 5-HT3 receptor in anesthetized rats.

COc1c2c(nc3ccccc13)CN(CCC1CCN(Cc3ccccc3)CC1)C2=O [Cm.A, 2-[2-(1-benzylpiperizin-4-yl)ethyl]-2,3-dihydro-9-methoxy-1H-pyrrolo[3,4-b]quinolin-1-one hemifumarate]
centrally acting cholinergic symptoms (tremor, chewing and yawning) ([1]; hippocampus study, i.p., data not shown): Few centrally acting cholinergic symptoms | ACh content in perfusate increased ([1]; 10 mg/kg i.p.): 164% | ACh content in perfusate increased ([1]; 30 mg/kg i.p.): 552% | inhibition of 5-HT-evoked B.J.E. (reflex bradycardia) ([2]; i.v. pretreatment, E2020 0.1~1 mg/kg, 5-HT 20 μg/kg i.v.): inhibited B.J.E. dose dependently | blood pressure, heart rate and other signs ([2]; i.v., THA 10 mg/kg, E2020 higher than 1 mg/kg, data not shown): without any change on blood pressure and heart rate
